Here are results for three molecules from PubChem BioAssay AID1259407 (Chemical Carcinogenesis Research Information System (CCRIS), 2018).

Structures are written as SMILES. Calls of active or inactive are those of the source. The rule behind the calls is not given here.

This data set deals with CCRIS mutagenicity, Ames/micronucleus/aberration tests. The data set can be described thus: CCRIS mutagenicity studies. The settings on record: Method: STANDARD PLATE.
Where [1] appears, read: Test System: AMES SALMONELLA TYPHIMURIUM, Strain/Indicator: TA98, Metabolic Activation: NONE.
Where [2] appears, read: Test System: AMES SALMONELLA TYPHIMURIUM, Strain/Indicator: TA100, Metabolic Activation: NONE.
[3] abbreviates: Test System: AMES SALMONELLA TYPHIMURIUM, Strain/Indicator: TA1535, Metabolic Activation: NONE.
Setting [4] is: Test System: AMES SALMONELLA TYPHIMURIUM, Strain/Indicator: TA1537, Metabolic Activation: NONE.
Where [5] appears, read: Test System: AMES SALMONELLA TYPHIMURIUM, Strain/Indicator: TA1538, Metabolic Activation: NONE.

Take `CC(=O)c1ccc(S(=O)(=O)NC(=O)NC2CCCCC2)cc1`: the mutagenic call was “inactive; negative” (Test System: AMES SALMONELLA TYPHIMURIUM, Strain/Indicator: TA98, Metabolic Activation: HAMSTER, LIVER, S-9, AROCLOR 1254); “inactive; negative” (Test System: AMES SALMONELLA TYPHIMURIUM, Strain/Indicator: TA98, Metabolic Activation: HAMSTER, LIVER, S-9); “inactive; negative” (Test System: AMES SALMONELLA TYPHIMURIUM, Strain/Indicator: TA98, Metabolic Activation: MOUSE, LIVER, S-9, AROCLOR 1254); “inactive; negative” (Test System: AMES SALMONELLA TYPHIMURIUM, Strain/Indicator: TA98, Metabolic Activation: MOUSE, LIVER, S-9); “inactive; negative” under setting [1]; “inactive; negative” (Test System: AMES SALMONELLA TYPHIMURIUM, Strain/Indicator: TA98, Metabolic Activation: RAT, LIVER, S-9, AROCLOR 1254). For the same molecule, the mutagenic call was “inactive; negative” (Test System: AMES SALMONELLA TYPHIMURIUM, Strain/Indicator: TA98, Metabolic Activation: RAT, LIVER, S-9); “inactive; negative” (Test System: AMES SALMONELLA TYPHIMURIUM, Strain/Indicator: TA100, Metabolic Activation: HAMSTER, LIVER, S-9, AROCLOR 1254); “inactive; negative” (Test System: AMES SALMONELLA TYPHIMURIUM, Strain/Indicator: TA100, Metabolic Activation: HAMSTER, LIVER, S-9); “inactive; negative” (Test System: AMES SALMONELLA TYPHIMURIUM, Strain/Indicator: TA100, Metabolic Activation: MOUSE, LIVER, S-9, AROCLOR 1254); “inactive; negative” (Test System: AMES SALMONELLA TYPHIMURIUM, Strain/Indicator: TA100, Metabolic Activation: MOUSE, LIVER, S-9); “inactive; negative” under setting [2]. Further, the mutagenic call (Test System: AMES SALMONELLA TYPHIMURIUM, Strain/Indicator: TA100, Metabolic Activation: RAT, LIVER, S-9, AROCLOR 1254) is “inactive; negative”; the mutagenic call (Test System: AMES SALMONELLA TYPHIMURIUM, Strain/Indicator: TA100, Metabolic Activation: RAT, LIVER, S-9) is “inactive; negative”; the mutagenic call (Test System: AMES SALMONELLA TYPHIMURIUM, Strain/Indicator: TA1535, Metabolic Activation: HAMSTER, LIVER, S-9, AROCLOR 1254) was “inactive; negative”; the mutagenic call (Test System: AMES SALMONELLA TYPHIMURIUM, Strain/Indicator: TA1535, Metabolic Activation: HAMSTER, LIVER, S-9) is “inactive; negative”; the mutagenic call (Test System: AMES SALMONELLA TYPHIMURIUM, Strain/Indicator: TA1535, Metabolic Activation: MOUSE, LIVER, S-9, AROCLOR 1254) is “inactive; negative”; the mutagenic call (Test System: AMES SALMONELLA TYPHIMURIUM, Strain/Indicator: TA1535, Metabolic Activation: MOUSE, LIVER, S-9) was “inactive; negative”. Also, the mutagenic call under setting [3] was “inactive; negative”; the mutagenic call (Test System: AMES SALMONELLA TYPHIMURIUM, Strain/Indicator: TA1535, Metabolic Activation: RAT, LIVER, S-9, AROCLOR 1254) was “inactive; negative”; the mutagenic call (Test System: AMES SALMONELLA TYPHIMURIUM, Strain/Indicator: TA1535, Metabolic Activation: RAT, LIVER, S-9) is “inactive; negative”; the mutagenic call (Test System: AMES SALMONELLA TYPHIMURIUM, Strain/Indicator: TA1537, Metabolic Activation: HAMSTER, LIVER, S-9, AROCLOR 1254) was “inactive; negative”; the mutagenic call (Test System: AMES SALMONELLA TYPHIMURIUM, Strain/Indicator: TA1537, Metabolic Activation: HAMSTER, LIVER, S-9) is “inactive; negative”; the mutagenic call (Test System: AMES SALMONELLA TYPHIMURIUM, Strain/Indicator: TA1537, Metabolic Activation: MOUSE, LIVER, S-9, AROCLOR 1254) is “inactive; negative”. Also, the mutagenic call (Test System: AMES SALMONELLA TYPHIMURIUM, Strain/Indicator: TA1537, Metabolic Activation: MOUSE, LIVER, S-9) was “inactive; negative”; the mutagenic call under setting [4] is “inactive; negative”; the mutagenic call (Test System: AMES SALMONELLA TYPHIMURIUM, Strain/Indicator: TA1537, Metabolic Activation: RAT, LIVER, S-9, AROCLOR 1254) is “inactive; negative”; the mutagenic call (Test System: AMES SALMONELLA TYPHIMURIUM, Strain/Indicator: TA1537, Metabolic Activation: RAT, LIVER, S-9) is “inactive; negative”; the mutagenic call (Test System: AMES SALMONELLA TYPHIMURIUM, Strain/Indicator: TA1538, Metabolic Activation: HAMSTER, LIVER, S-9, AROCLOR 1254) is “inactive; negative”; the mutagenic call (Test System: AMES SALMONELLA TYPHIMURIUM, Strain/Indicator: TA1538, Metabolic Activation: HAMSTER, LIVER, S-9) was “inactive; negative”. Also, the mutagenic call (Test System: AMES SALMONELLA TYPHIMURIUM, Strain/Indicator: TA1538, Metabolic Activation: MOUSE, LIVER, S-9, AROCLOR 1254) is “inactive; negative”; the mutagenic call (Test System: AMES SALMONELLA TYPHIMURIUM, Strain/Indicator: TA1538, Metabolic Activation: MOUSE, LIVER, S-9) is “inactive; negative”; the mutagenic call under setting [5] was “inactive; negative”; the mutagenic call (Test System: AMES SALMONELLA TYPHIMURIUM, Strain/Indicator: TA1538, Metabolic Activation: RAT, LIVER, S-9, AROCLOR 1254) was “inactive; negative”; the mutagenic call (Test System: AMES SALMONELLA TYPHIMURIUM, Strain/Indicator: TA1538, Metabolic Activation: RAT, LIVER, S-9) was “inactive; negative”; the mutagenic call (Test System: E. COLI, Strain/Indicator: WP2 UVRA, Metabolic Activation: HAMSTER, LIVER, S-9, AROCLOR 1254) is “inactive; negative”. For the same molecule, the mutagenic call (Test System: E. COLI, Strain/Indicator: WP2 UVRA, Metabolic Activation: HAMSTER, LIVER, S-9) was “inactive; negative”; the mutagenic call (Test System: E. COLI, Strain/Indicator: WP2 UVRA, Metabolic Activation: MOUSE, LIVER, S-9, AROCLOR 1254) was “inactive; negative”; the mutagenic call (Test System: E. COLI, Strain/Indicator: WP2 UVRA, Metabolic Activation: MOUSE, LIVER, S-9) was “inactive; negative”; the mutagenic call (Test System: E. COLI, Strain/Indicator: WP2 UVRA, Metabolic Activation: NONE) was “inactive; negative”; the mutagenic call (Test System: E. COLI, Strain/Indicator: WP2 UVRA, Metabolic Activation: RAT, LIVER, S-9, AROCLOR 1254) was “inactive; negative”; the mutagenic call (Test System: E. COLI, Strain/Indicator: WP2 UVRA, Metabolic Activation: RAT, LIVER, S-9) was “inactive; negative”.
Take `Nc1ccc2c(c1)oc1ccccc12`: the mutagenic call under setting [1] is “active; positive”; the mutagenic call (Test System: AMES SALMONELLA TYPHIMURIUM, Strain/Indicator: TA98, Metabolic Activation: S-9, PHENOBARBITAL AND 5,6-BENZOFLAVONE) was “active; positive”; the mutagenic call under setting [2] is “inactive; negative”; the mutagenic call (Test System: AMES SALMONELLA TYPHIMURIUM, Strain/Indicator: TA100, Metabolic Activation: S-9, PHENOBARBITAL AND 5,6-BENZOFLAVONE) is “active; positive”.
Turning to `O=Nc1c(-c2ccc(Cl)cc2)nc2sccn12`, the mutagenic call was “inactive; negative” under setting [1]; “inactive; negative” under setting [2]; “inactive; negative” under setting [3]; “active; positive” under setting [4]; “active; positive” under setting [5].
